Series [1] in a line: Solubility of indacaterol maleate in water and in maleate buffer. The class given is physicochemical. Here is the method: In Lot II, the concentration of indacaterol in Feedline A was 18% w/w and the concentration in the spray-blended bulk powder was just 4.1% w/w, as the remaining spray dried particles from Feedlines B and C contained no API.
Lot IV is formulated like Lot II except 20 mM sodium maleate (pH 5.5) was added to Feedline A. Sodium maleate was added to decrease the indacaterol solubility in water to about, 0.01 mg/ml (common ion effect). In this case, spray-blending reduced the dissolved indacaterol in the feedstock from about, 8.0% to 0.1%.
Estimated % Dissolved was calculated based on the feedstock compositions according to equation 1. The solubility of indacaterol in water is 0.2 mg/ml, and 0.01 mg/ml in 20 mM maleate buffer. The decreased solubility in maleate buffer is the result of the shift in the equilibrium towards precipitation of indacaterol maleate which occurs as a result of the addition of a common ion. The impact of spray-blending on the dissolved fraction is clearly evident by comparing Lots I and VI. In the spray-blended Lot I, the total drug loading is 1.4%, yet the dissolved fraction is just 4.9%. In contrast, for the single feedstock Lot VI, the drug content is actually higher (2%), yet the dissolved fraction is nearly 15%.

In another series the target is β2-adrenoceptor (Homo sapiens, UniProt P07550). As to conditions: cited from earlier work.
β2-adrenoceptor, sequence (P07550 whole entry, species assumed): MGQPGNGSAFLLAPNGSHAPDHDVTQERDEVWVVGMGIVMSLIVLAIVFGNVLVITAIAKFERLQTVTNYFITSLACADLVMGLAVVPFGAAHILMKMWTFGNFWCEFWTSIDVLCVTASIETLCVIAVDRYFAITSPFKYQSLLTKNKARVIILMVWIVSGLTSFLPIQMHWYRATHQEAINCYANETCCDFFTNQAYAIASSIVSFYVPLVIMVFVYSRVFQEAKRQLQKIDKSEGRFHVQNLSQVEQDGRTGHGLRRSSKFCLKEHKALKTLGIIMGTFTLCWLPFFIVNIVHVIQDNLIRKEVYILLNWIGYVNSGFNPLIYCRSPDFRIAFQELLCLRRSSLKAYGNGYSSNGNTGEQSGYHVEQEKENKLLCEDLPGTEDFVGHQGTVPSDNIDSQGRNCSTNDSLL

Converted amounts (≈) assume the structure as drawn. Structures can show the parent of a compound that is named as a salt. Where two headings read alike, the source gives them in different places.

Consider `CCc1cc2c(cc1CC)CC(NC[C@H](O)c1ccc(O)c3[nH]c(=O)ccc13)C2` [indacaterol maleate, (R)-5-[2-(5,6-diethyl-indan-2-ylamino)-1-hydroxyethyl]-8-hydroxy-1H-quinolin-2-one], for which the solubility in series [1] (water, read-out: solubility in water) came out at 200 µg/mL.

As to `CCc1cc2c(cc1CC)CC(NC[C@H](O)c1ccc(O)c3[nH]c(=O)ccc13)C2` [indacaterol, (R)-5-[2-(5,6-diethyl-indan-2-ylamino)-1-hydroxyethyl]-8-hydroxy-1H-quinolin-2-one], the “solubility in 20 mM maleate buffer” value in series [1] (20 mM sodium maleate (pH 5.5), common ion effect) was 0.01 mg/mL (≈ 25.5 µM). Also, the solubility in series [1] (20 mM sodium maleate buffer, pH 5.5, aqueous buffer, 20 mM sodium maleate (pH 5.5), common ion effect, read-out: solubility in 20 mM maleate buffer) is around 10 µg/mL (≈ 25.5 µM). Also, on β2-adrenoceptor, the duration of action result is reported as “over 24 hours” and the onset of action entry is listed as “about 10 minutes”.

For orientation: solubility means the dissolved amount per volume that the medium holds.

Values taken from patent publication US20150374623A1, “DEAMORPHIZATION OF SPRAY-DRIED FORMULATIONS VIA SPRAY-BLENDING” (NOVARTIS AG, priority 2013, published 2015).
